{"source": "patent US11077150B2", "about": "“Methods and compositions for treatment of eye conditions” (priority 2018, dated 2021)", "origin": "cited, not measured here", "key": {"CB2 receptors": {"biological_target": "CB2 receptors (Homo sapiens, UniProt P34972)", "sequence (P34972 whole entry)": "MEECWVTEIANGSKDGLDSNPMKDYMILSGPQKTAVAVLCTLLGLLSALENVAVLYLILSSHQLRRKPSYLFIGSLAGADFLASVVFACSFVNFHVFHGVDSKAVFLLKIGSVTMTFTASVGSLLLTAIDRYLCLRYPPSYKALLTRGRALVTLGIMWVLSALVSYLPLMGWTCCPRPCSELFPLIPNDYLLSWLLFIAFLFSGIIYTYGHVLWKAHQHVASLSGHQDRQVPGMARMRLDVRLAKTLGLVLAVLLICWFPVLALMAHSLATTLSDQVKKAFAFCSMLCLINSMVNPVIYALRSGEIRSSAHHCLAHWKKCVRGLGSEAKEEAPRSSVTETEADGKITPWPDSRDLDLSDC"}, "[1]": {"settings": "rat model of DR"}, "[2]": {"settings": "75 symptomatic patients; nine-month trial; eye drops"}, "[3]": {"settings": "topically applied in light mineral oil; volunteers"}, "[4]": {"settings": "oral doses of up to 600 mg; elderly subjects"}}, "data": [{"compound": "C=C(C)[C@@H]1CCC(C)=C[C@H]1c1c(O)cc(CCCCC)cc1O", "note": "[Cannabidiol, cannabidiol]", "values": [{"measurement": "affinity for CB2 receptors", "setting": "CB2 receptors", "value": "low affinity"}, {"measurement": "water solubility", "value": "very low"}, {"measurement": "oxidative stress and neurotoxicity", "setting": "[1]", "value": "significantly reduced"}, {"measurement": "retinal cell death", "setting": "[1]", "value": "prevented"}]}, {"compound": "CC(=O)NCCC(=O)N[C@@H](Cc1cnc[nH]1)C(=O)O", "note": "[N-acetyl carnosine]", "values": [{"measurement": "glare sensitivity", "setting": "[2]", "value": "significant improvement"}, {"measurement": "visual acuity", "setting": "[2]", "value": "improvement"}]}, {"compound": "CCCCCc1cc(O)c2c(c1)OC(C)(C)[C@@H]1CCC(C)=C[C@@H]21", "note": "[THC, Δ^9-tetrahydrocannabinol]", "values": [{"measurement": "adverse effects", "setting": "[3]", "value": "burning sensation, lid swelling"}, {"measurement": "effect on interocular pressure", "setting": "[3]", "value": "did not improve"}]}, {"compound": "O=C(O)CCCCC1CCSS1", "note": "(stereo not drawn) [lipoic acid, α-lipoic acid]", "values": [{"measurement": "tolerability", "setting": "[4]", "value": "well tolerated"}]}]}
